IC50 and EC50 data for 19 molecules are collected here from US7897593B2, “HIV integrase inhibitors” (priority 2006, dated 2011).

For orientation: IC50 means the concentration that inhibits the measured activity by half.

One experiment concerns the target T1, HIV-integrase (Human immunodeficiency virus type 1 group M subtype B, UniProt P12497).
T1 construct: Recombinant integrase (0.26 ng) was incubated with the beads
Put plainly: HIV-Integrase Inhibition Activity (SPA strand transfer assay). The experiment is classed as biochemical. To be noted: recombinant integrase, SPA beads, P33 labeled target DNA. The protocol:
HIV-Integrase InhibitionActivity. To evaluate in-vitro activity against HIV-integrase, 5 pmole of biotin labeled substrate DNA was bound to 100 μg of Streptavidin coated PVT SPA beads (Amersham Pharmacia Biotech). Recombinant integrase (0.26 ng) was incubated with the beads for 90 min at 37° C. Unbound enzyme was removed by washing the complex followed by addition of inhibitors and 0.1 fmol of P33 labeled target DNA. The reaction was stopped by adding EDTA to a final concentration of 10 mM. Samples were counted in TopCountNXT (Packard) and the CPM was used as a measure of integration. The reaction condition was as described in A. Engelman and R. Craigie, J. Virol 69, 5908-5911 (1995). The sequences of substrate and target DNA were described in Nucleic Acid Research 22, 1121-1122 (1994). Activity equal to A refers to a compound having IC50=0.001 to 0.01 μM B=0.01-0.1, and C≧0.1 μM respectively.

Experiment [1] concerns recombinant NL-Rluc virus. Put plainly: Inhibition of HIV replication. The experiment is classed as cell-based. To be noted: Human immunodeficiency virus 1, read-out: Antiviral Activity, NL-RLuc virus; three serum conditions described, the one tabulated is not stated.

As to `CN(C)S(=O)(=O)N1CCC2(CC1)OCCn1c2nc(C(=O)NCc2ccc(F)cc2-n2cncn2)c(O)c1=O` [Example 1, 1-(N,N-Dimethylsulfamoyl)-N-(4-fluoro-2-(1H-1,2,4-triazol-1-yl)benzyl)-3′-hydroxy-4′-oxo-6′,7′-dihydro-4′H-spiro[piperidine-4,9′-pyrimido[2,1-c][1,4]oxazine]-2′-carboxamide], the IC50 on HIV-integrase lay in the range of 1 to 10 nM. Moreover, the EC50 in experiment [1] was 1 to 10 nM.
Consider `CN(C)S(=O)(=O)N1CCC2(CC1)OCCn1c2nc(C(=O)NCc2ccc(F)cc2)c(O)c1=O` [Example 2], for which the IC50 at HIV-integrase fell in the range of 1 to 10 nM. Besides, the EC50 in experiment [1] was in the range of 1 to 10 nM.
For `COC(=O)N1CCC2(CC1)OCCn1c2nc(C(=O)NCc2ccc(F)cc2-n2cncn2)c(O)c1=O` [Example 3], the IC50 at HIV-integrase lay in the range of 1 to 10 nM. Besides, in experiment [1], the EC50 is 1 to 10 nM.
`COC(=O)N1CCC2(CC1)OCCn1c2nc(C(=O)NCc2ccc(F)cc2)c(O)c1=O` [Example 4]: at HIV-integrase, the IC50 lay within 1 to 10 nM. The EC50 in experiment [1] is 1 to 10 nM.
For the molecule `CN(C)C(=O)N1CCC2(CC1)OCCn1c2nc(C(=O)NCc2ccc(F)cc2-n2cncn2)c(O)c1=O` [Example 5], on HIV-integrase, the IC50 lay within 1 to 10 nM. Also, in experiment [1], the EC50 fell in the range of 1 to 10 nM.
In the case of `CN(C)C(=O)N1CCC2(CC1)OCCn1c2nc(C(=O)NCc2ccc(F)cc2)c(O)c1=O` [Example 6], on HIV-integrase, the IC50 was in the range of 1 to 10 nM. In experiment [1], the EC50 lay within 1 to 10 nM.
Take `CS(=O)(=O)N1CCC2(CC1)OCCn1c2nc(C(=O)NCc2ccc(F)cc2-n2cncn2)c(O)c1=O` [Example 7]: the IC50 at HIV-integrase was 1 to 10 nM. Moreover, the EC50 in experiment [1] was in the range of 1 to 10 nM.
In the case of `CS(=O)(=O)N1CCC2(CC1)OCCn1c2nc(C(=O)NCc2ccc(F)cc2)c(O)c1=O` [Example 8], the half-inhibitory concentration (IC50) on HIV-integrase was in the range of 1 to 10 nM. Also, the EC50 in experiment [1] was in the range of 1 to 10 nM.
In the case of `O=C(NCc1ccc(F)cc1-n1cncn1)c1nc2n(c(=O)c1O)CCOC21CCN(C(=O)c2ccccc2)CC1` [Example 9], the IC50 at HIV-integrase is 10 to 100 nM. For the same molecule, the EC50 in experiment [1] is 1 to 10 nM.
The corresponding values for `O=C(NCc1ccc(F)cc1)c1nc2n(c(=O)c1O)CCOC21CCN(C(=O)c2ccccc2)CC1` [Example 10] are 10 to 100 nM and 1 to 10 nM.
Turning to `Cc1ccc(S(=O)(=O)N2CCC3(CC2)OCCn2c3nc(C(=O)NCc3ccc(F)cc3-n3cncn3)c(O)c2=O)cc1` [Example 11], on HIV-integrase, the IC50 lay within 1 to 10 nM. The EC50 in experiment [1] is 1 to 10 nM.
As to `Cc1ccc(S(=O)(=O)N2CCC3(CC2)OCCn2c3nc(C(=O)NCc3ccc(F)cc3)c(O)c2=O)cc1` [Example 12], the IC50 at HIV-integrase fell in the range of 10 to 100 nM. Further, the EC50 in experiment [1] was in the range of 1 to 10 nM.
The corresponding values for `Cc1ccc(S(=O)(=O)N2CCC3(CC2)OCCn2c3nc(C(=O)NC(C)c3ccc(F)cc3)c(O)c2=O)cc1` (centres unmarked) [Example 13] are 10 to 100 nM and 10 to 100 nM.
The corresponding values for `Cc1ccc(S(=O)(=O)N2CCC3(CC2)OCCn2c3nc(C(=O)NCc3ccc(F)cc3S(=O)(=O)N3CCOCC3)c(O)c2=O)cc1` [Example 14] are 10 to 100 nM and 1 to 10 nM.
The corresponding values for `Cc1ccc(S(=O)(=O)N2CCC3(CC2)OCCn2c3nc(C(=O)NCc3ccc(F)cc3-n3cnc(C)n3)c(O)c2=O)cc1` [Example 15] are 10 to 100 nM and 1 to 10 nM.
As to `Cc1ccc(S(=O)(=O)N2CCC3(CC2)OCCn2c3nc(C(=O)NCc3ccc(F)cc3-n3ncnc3C)c(O)c2=O)cc1` [Example 16], on HIV-integrase, the IC50 is 10 to 100 nM. In experiment [1], the EC50 lay in the range of 1 to 10 nM.
The corresponding values for `Cc1ccc(S(=O)(=O)N2CCC3(CC2)OCCn2c3nc(C(=O)NCc3ccc(F)cc3-n3nc(C)nc3C)c(O)c2=O)cc1` [Example 17] are 10 to 100 nM and 1 to 10 nM.
The corresponding values for `Cc1ccc(F)cc1S(=O)(=O)N1CCC2(CC1)OCCn1c2nc(C(=O)NCc2ccc(F)cc2)c(O)c1=O` [Example 18] are 1 to 10 nM and 1 to 10 nM.
The corresponding values for `Cc1ccc(F)cc1S(=O)(=O)N1CCC2(CC1)OCCn1c2nc(C(=O)NCc2ccc(F)cc2-n2cncn2)c(O)c1=O` [Example 19] are 1 to 10 nM and 1 to 10 nM.
